Assay results: publication PMC4005666 (2014)

Columns and labels:
[1] = system: A1nU (RNA, riboswitch) GGACUCGGGGUGCCCUUCUGCGUGAAGGCUGAGAAAUACCCGUAUCACCUGAUCUGGAUAAUGCCAGCGUAGGGUAGUUC; experiment: ITC; details: 100 mM KCl, 10 mM MgCl2; 40 mM Hepes pH 7.5, 303.15 K
[2] = system: A2bU (RNA, riboswitch) GGACUCGGGGUGCCCUUCUGCGUGAAGGCUGAGAAAUACCCGUAUCUCCUGAUCUGGAUAAUGCCAGCGUAGGGAAGUUC; experiment: ITC; details: 100 mM KCl, 10 mM MgCl2; 40 mM Hepes pH 7.5, 303.15 K
[3] = system: ΔUC (RNA, riboswitch) GGACUCGGGGUGCCCUUCUGCGUGAAGGCUGAGAAAUACCCGUAACCUGAUCUGGAUAAUGCCAGCGUAGGGAAGUUC; experiment: ITC; details: 100 mM KCl, 10 mM MgCl2; 40 mM Hepes pH 7.5, 303.15 K
[4] = system: Natural E. coli TPP riboswitch (RNA, riboswitch) GGACUCGGGGUGCCCUUCUGCGUGAAGGCUGAGAAAUACCCGUAUCACCUGAUCUGGAUAAUGCCAGCGUAGGGAAGUUC; experiment: ITC; details: 100 mM KCl, 10 mM MgCl2; 40 mM Hepes pH 7.5, 303.15 K
[5] = system: A1nC (RNA, riboswitch) GGACUCGGGGUGCCCUUCUGCGUGAAGGCUGAGAAAUACCCGUAUCACCUGAUCUGGAUAAUGCCAGCGUAGGGCAGUUC; experiment: ITC; details: 100 mM KCl, 10 mM MgCl2; 40 mM Hepes pH 7.5, 303.15 K; 150 µM TPP titrated into 15 µM RNA
[6] = system: A2bC (RNA, riboswitch) GGACUCGGGGUGCCCUUCUGCGUGAAGGCUGAGAAAUACCCGUAUCCCCUGAUCUGGAUAAUGCCAGCGUAGGGAAGUUC; experiment: ITC; details: 100 mM KCl, 10 mM MgCl2; 40 mM Hepes pH 7.5, 303.15 K
[7] = system: Natural E. coli TPP riboswitch (RNA, riboswitch) GGACUCGGGGUGCCCUUCUGCGUGAAGGCUGAGAAAUACCCGUAUCACCUGAUCUGGAUAAUGCCAGCGUAGGGAAGUUC; experiment: native gel electrophoresis (mobility increase); details: 1 mM Mg2+; 25 mM Tris, 192 mM glycine pH 8.3; 100 µM TPP
[8] = system: A1bG (RNA, riboswitch) GGACUCGGGGUGCCCUUCUGCGUGAAGGCUGAGAAAUACCCGUGUCACCUGAUCUGGAUAAUGCCAGCGUAGGGAAGUUC; experiment: ITC; details: 100 mM KCl, 10 mM MgCl2; 40 mM Hepes pH 7.5, 303.15 K
[9] = system: A1nC (RNA, riboswitch) GGACUCGGGGUGCCCUUCUGCGUGAAGGCUGAGAAAUACCCGUAUCACCUGAUCUGGAUAAUGCCAGCGUAGGGCAGUUC; experiment: native gel electrophoresis (mobility increase); details: 1 mM Mg2+; 25 mM Tris, 192 mM glycine pH 8.3; 100 µM TPP

Kd [1]: 4070 ± 730 nM
Kd [2]: 550 ± 40 nM
Kd [3]: 280 ± 40 nM
Kd [4]: 230 ± 20 nM
binding [5]: no
Kd [6]: 850 ± 110 nM
binding [7]: yes
Kd [8]: 2440 ± 230 nM
binding [9]: no
Structure (SMILES): Cc1ncc(C[n+]2csc(CCOP(=O)(O)OP(=O)(O)O)c2C)c(N)n1
